According to ChEMBL document CHEMBL1201862, “PubChem BioAssay data set” (2004):
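How tested: cells in 96-well plates exposed to compound for 48 hours at five concentrations. At the GI50, growth is halved.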 The source made the active and inactive calls. Rule as the data show it: active = GI50 up to about 1.1 µM and inactive = higher.

How the values were obtained:
Experiment in all cases: DTP human tumour cell line panel, 48 h
[1] = system: LOX IMVI
[2] = system: U-251
[3] = system: SK-OV-3
[4] = system: NCI-H23
[5] = system: SF-268
[6] = system: IGROV-1
[7] = system: HT-29
[8] = system: NCI-H460
[9] = system: HCT-116
[10] = system: UACC-62
[11] = system: K562
[12] = system: DMS-273
[13] = system: M19-MEL
[14] = system: LXFL 529
[15] = system: DLD-1
[16] = system: OVCAR-5
[17] = system: OVCAR-8
[18] = system: SNB-75
[19] = system: M14
[20] = system: EKVX
[21] = system: KM12
[22] = system: HCC 2998
[23] = system: SW-620
[24] = system: NCI-H522
[25] = system: SK-MEL-5
[26] = system: CAKI-1
[27] = system: RXF 393
[28] = system: MOLT-4
[29] = system: UACC-257
[30] = system: HOP-62
[31] = system: Malme-3M
[32] = system: RPMI-8226
[33] = system: ACHN
[34] = system: COLO 205
[35] = system: XF498
[36] = system: UO-31
[37] = system: TK-10
[38] = system: SN12C
[39] = system: SF-295
[40] = system: SK-MEL-28
[41] = system: HL-60
[42] = system: 786-0
[43] = system: DMS-114
[44] = system: SR
[45] = system: A549
[46] = system: A498
[47] = system: HCT-15
[48] = system: SK-MEL-2
[49] = system: OVCAR-3
[50] = system: CCRF-CEM
[51] = system: OVCAR-4
[52] = system: SNB-19
[53] = system: SNB-78
[54] = system: HOP-18
[55] = system: SF-539
[56] = system: HOP-92
[57] = system: KM-20L2
[58] = system: NCI-H226

`C=Cc1c(-c2ccccc2)cnc2[nH]c3ccccc3c12` was tested, and the GI50 [1] was > 50 µM (inactive), the GI50 [2] was > 50 µM (inactive) and the GI50 [3] was > 50 µM (inactive). The GI50 [4] was > 50 µM (inactive), the GI50 [5] was > 50 µM (inactive) and the GI50 [6] was > 50 µM (inactive). The GI50 [7] was > 50 µM (inactive), the GI50 [8] was > 50 µM (inactive) and the GI50 [9] was > 50 µM (inactive). The GI50 [10] was > 50 µM (inactive), the GI50 [11] was > 50 µM (inactive) and the GI50 [12] was > 50 µM (inactive). The GI50 [13] was > 50 µM (inactive), the GI50 [14] was > 50 µM (inactive) and the GI50 [15] was > 50 µM (inactive). For the same molecule, the GI50 [16] was > 50 µM (inactive), the GI50 [17] was > 50 µM (inactive) and the GI50 [18] was 6.59 µM (inactive). The GI50 [19] was > 50 µM (inactive), the GI50 [20] was 3.4 µM (inactive) and the GI50 [21] was 2.43 µM (inactive). The GI50 [22] was > 50 µM (inactive), the GI50 [23] was > 50 µM (inactive) and the GI50 [24] was > 50 µM (inactive). For the same molecule, the GI50 [25] was > 50 µM (inactive), the GI50 [26] was > 50 µM (inactive) and the GI50 [27] was > 50 µM (inactive). The GI50 [28] was > 50 µM (inactive), the GI50 [29] was > 50 µM (inactive) and the GI50 [30] was > 50 µM (inactive). For the same molecule, the GI50 [31] was > 50 µM (inactive), the GI50 [32] was > 50 µM (inactive) and the GI50 [33] was > 50 µM (inactive). For the same molecule, the GI50 [34] was > 50 µM (inactive), the GI50 [35] was > 50 µM (inactive) and the GI50 [36] was > 50 µM (inactive). For the same molecule, the GI50 [37] was > 50 µM (inactive), the GI50 [38] was > 50 µM (inactive) and the GI50 [39] was > 50 µM (inactive). For the same molecule, the GI50 [40] was > 50 µM (inactive), the GI50 [41] was > 50 µM (inactive) and the GI50 [42] was > 50 µM (inactive). The GI50 [43] was > 50 µM (inactive), the GI50 [44] was > 50 µM (inactive) and the GI50 [45] was > 50 µM (inactive). For the same molecule, the GI50 [46] was > 50 µM (inactive), the GI50 [47] was > 50 µM and the GI50 [48] was > 50 µM (inactive). For the same molecule, the GI50 [49] was > 50 µM (inactive), the GI50 [50] was > 50 µM (inactive) and the GI50 [51] was > 50 µM (inactive). The GI50 [52] was > 50 µM (inactive).

In the case of `[N-]=[N+]=NC(c1cn(C2CC(O)C(CO)O2)c(=O)[nH]c1=O)C(Br)Br` (stereo unspecified), the GI50 [53] is reported as > 100 µM (inactive), the GI50 [54] is reported as > 100 µM (inactive) and the GI50 [1] is reported as > 100 µM (inactive). For the same molecule, the GI50 [2] was > 100 µM (inactive), the GI50 [3] was > 100 µM (inactive) and the GI50 [4] was > 100 µM (inactive). For the same molecule, the GI50 [6] was > 100 µM (inactive), the GI50 [7] was > 100 µM (inactive) and the GI50 [8] was > 100 µM (inactive). For the same molecule, the GI50 [9] was > 100 µM (inactive), the GI50 [10] was > 100 µM (inactive) and the GI50 [11] was > 100 µM (inactive). For the same molecule, the GI50 [12] was > 100 µM (inactive), the GI50 [13] was > 100 µM (inactive) and the GI50 [14] was > 100 µM (inactive). For the same molecule, the GI50 [15] was > 100 µM (inactive), the GI50 [55] was > 100 µM (inactive) and the GI50 [16] was > 100 µM (inactive). The GI50 [56] was > 100 µM (inactive), the GI50 [17] was > 100 µM (inactive) and the GI50 [18] was > 100 µM (inactive). For the same molecule, the GI50 [57] was > 100 µM (inactive), the GI50 [19] was > 100 µM (inactive) and the GI50 [20] was > 100 µM (inactive). For the same molecule, the GI50 [21] was > 100 µM (inactive), the GI50 [22] was > 100 µM (inactive) and the GI50 [23] was > 100 µM (inactive). For the same molecule, the GI50 [24] was > 100 µM (inactive), the GI50 [25] was > 100 µM (inactive) and the GI50 [26] was > 100 µM (inactive). For the same molecule, the GI50 [27] was > 100 µM (inactive), the GI50 [28] was > 100 µM (inactive) and the GI50 [30] was > 100 µM (inactive). The GI50 [31] was > 100 µM (inactive), the GI50 [32] was > 100 µM (inactive) and the GI50 [33] was > 100 µM (inactive). For the same molecule, the GI50 [34] was > 100 µM (inactive), the GI50 [36] was > 100 µM (inactive) and the GI50 [37] was > 100 µM (inactive). For the same molecule, the GI50 [38] was > 100 µM (inactive), the GI50 [39] was > 100 µM (inactive) and the GI50 [40] was > 100 µM (inactive). For the same molecule, the GI50 [41] was > 100 µM (inactive), the GI50 [42] was > 100 µM (inactive) and the GI50 [43] was > 100 µM (inactive). For the same molecule, the GI50 [44] was > 100 µM (inactive), the GI50 [45] was > 100 µM (inactive) and the GI50 [47] was > 100 µM. For the same molecule, the GI50 [58] was > 100 µM (inactive), the GI50 [48] was > 100 µM (inactive) and the GI50 [49] was > 100 µM (inactive). The GI50 [50] was > 100 µM (inactive) and the GI50 [52] was > 100 µM (inactive).

In the case of `O=c1c(-c2ccccc2)c2oc(c1-c1ccccc1)CSCc1cccc(c1)CSC2`, the GI50 [53] is reported as 82.8 µM (inactive), the GI50 [54] is reported as 27.8 µM (inactive) and the GI50 [1] is reported as 32.9 µM (inactive). The GI50 [2] was 31 µM (inactive), the GI50 [3] was 25.1 µM (inactive) and the GI50 [4] was > 100 µM (inactive). The GI50 [5] was 30.5 µM (inactive), the GI50 [6] was 26.3 µM (inactive) and the GI50 [7] was 51.9 µM (inactive). The GI50 [8] was 38.7 µM (inactive), the GI50 [9] was 41.2 µM (inactive) and the GI50 [10] was 44.1 µM (inactive). The GI50 [11] was 62.5 µM (inactive), the GI50 [12] was 39.5 µM (inactive) and the GI50 [13] was 45.9 µM (inactive). The GI50 [14] was 39 µM (inactive), the GI50 [15] was 54.7 µM (inactive) and the GI50 [55] was 22.7 µM (inactive). The GI50 [16] was > 100 µM (inactive), the GI50 [56] was 34.3 µM (inactive) and the GI50 [17] was 43.1 µM (inactive). The GI50 [18] was 15.3 µM (inactive), the GI50 [57] was 67.9 µM (inactive) and the GI50 [19] was > 100 µM (inactive). The GI50 [20] was 42.1 µM (inactive), the GI50 [21] was 60.3 µM (inactive) and the GI50 [22] was 94.6 µM (inactive). For the same molecule, the GI50 [23] was 30.3 µM (inactive), the GI50 [24] was 39.6 µM (inactive) and the GI50 [25] was 54.2 µM (inactive). The GI50 [26] was 34.2 µM (inactive), the GI50 [27] was 14.5 µM (inactive) and the GI50 [28] was > 100 µM (inactive). The GI50 [29] was > 100 µM (inactive), the GI50 [30] was 21.9 µM (inactive) and the GI50 [31] was 45.5 µM (inactive). The GI50 [32] was 27.9 µM (inactive), the GI50 [33] was 18.5 µM (inactive) and the GI50 [34] was 49.1 µM (inactive). The GI50 [36] was 32.1 µM (inactive), the GI50 [37] was 87.1 µM (inactive) and the GI50 [38] was 49.1 µM (inactive). The GI50 [39] was 51.2 µM (inactive), the GI50 [40] was 24 µM (inactive) and the GI50 [41] was 67.9 µM (inactive). For the same molecule, the GI50 [42] was 27.5 µM (inactive), the GI50 [43] was 36.9 µM (inactive) and the GI50 [45] was 38.5 µM (inactive). For the same molecule, the GI50 [46] was 21.8 µM (inactive), the GI50 [47] was > 100 µM and the GI50 [58] was 56.4 µM (inactive). For the same molecule, the GI50 [48] was > 100 µM (inactive), the GI50 [49] was 27.8 µM (inactive) and the GI50 [50] was 80 µM (inactive). For the same molecule, the GI50 [51] was 51.9 µM (inactive) and the GI50 [52] was 33 µM (inactive).
